US9872840B2, “Effect of garcinol in delaying the progression of diabetic nephropathy” (Delhi Institute of Pharmaceutical Sciences and Research, priority 2013, dated 2018)

What was measured:
STZ diabetic rats [1] = assay: Renal function and biochemical parameters in plasma/serum of STZ diabetic rats; format: in vivo, rat; conditions: 8 weeks, garcinol 200 mg/kg, olmesartan 6 mg/kg, glimepiride 1 mg/kg
Protocol: (§1) The Garcinol used for the experimental studies was bought from Sami Labs, Hyderabad. It was administered at the dose of 200 mg/kg dispersed in water with 1% CMC. Further, the experimental procedures were conducted according to the Institutional Animal Ethical Committee (protocol no. DIPSAR/IAEC/2009/01) and CPCSEA guidelines. All rats were housed under conventional conditions with controlled temperature, humidity and light (12 hours light-dark cycle), and were provided with a standard commercial diet and water (ad libitum). Healthy albino rats of Wistar strain were kept for breeding. Diabetes was induced by administration of streptozotocin (STZ, 90 mg/kg, i.p.) to a group of 2 day old pups. Age-matched control rats were given an equal volume of vehicle and considered as ‘Normal’ group of rats. Six weeks after injection, the blood glucose level was measured from the tail vein. Rats with a fasting blood glucose level over 160 mg/dl were considered as diabetic.
(§2) After 6 weeks, four groups of animals, each comprising of 8 animals were made. The groups were assigned to receive vehicle or garcinol (200 mg/kg dispersed in 1% CMC); Olmesartan (6 mg/kg/day) and Glimepiride (1 mg/kg/day) once daily for 8 weeks. After the final drug administration, body weight was measured and blood samples were collected in both fasting and post prandial conditions. The kidney of treated and untreated animals were isolated and fixed in 10% buffered formalin solution to prepare paraffin sections.
Biochemical estimation for glucose, insulin, albumin and total proteins; glomerular proteins (viz β-2 microglobulin, serum cystatin c and serum creatinine) for the determination of GFR; inflammatory cytokines and growth factors like Tumor necrosis factor (TNF-α), Nitric Oxide (NO), Transforming growth factor (TGF-β1) and Vascular endothelial growth factor (VEGF) and kidney specific molecular markers involving adiponectin and erythropoietin were made in plasma/serum.

rat nephrin = assay: Immunohistochemistry for nephrin in kidney; format: in vivo; conditions: kidney of STZ diabetic rats, 8 weeks; garcinol 200 mg/kg, olmesartan 6 mg/kg, glimepiride 1 mg/kg
Protocol: Immunohistochemistry was done as previously described according to a modified method using a Polyclonal (C-Terminus) Antibody which is identical to rat nephrin. These experiments were done using 4 micron […] kidney sections, as previously reported. Paraffin-embedded tissues sections were deparaffinized in microwave oven for 3 minutes. The sections were rehydrated in graded series of xylene and alcohols. Endogenous peroxidase activity was blocked by 3% hydrogen peroxide in distilled water for 15 minutes. Antigen retrieval was achieved by steam heating in a solution of citrate buffer, pH 6.0 for 30 minutes. Sections were blocked with 10% normal goat serum for polyclonal antibodies. Sections were then incubated for one hour with primary antibody Polyclonal (C-Terminus) Antibody which is identical to rat nephrin. The sections were then incubated in avidin-biotin complex at 1:25 dilution for 30 min at room temperature and developed using diaminobenzidine (DAB) as chromogen. After washing, the sections were counter-stained with hematoxylin and coverslipped. Negative controls were carried out by incubation in the absence of the primary antibody. The quantification of nephrin was done using point counting technique for each animal as described in established method. Davis B J, Johnston C I, Burrell, L M, Burns W C, Kubota E, Cao Z, Cooper M E, Allen T J. Renoprotective effects of vasopeptidase inhibition in an experimental model of diabetic nephropathy. Diabetologia. 2003; 46(7): 961-71.

STZ diabetic rats [2] = assay: Hemodynamic parameters by tail cuff apparatus; format: in vivo, rat
Protocol: Hemodynamic parameters were measured using tail cuff apparatus (Non-invasive measurement of Blood Pressure-Kent Scientific, USA). Garcinol was also observed to improve the systolic, diastolic and mean Blood Pressure.

STZ diabetic rats [3] = assay: Kidney histopathology, glomerulosclerotic index (periodic acid-Schiff); format: in vivo, rat; conditions: 8 weeks; for GSI (glomerulosclerotic index): kidney of STZ diabetic rats, sclerosis graded 0 to 4, garcinol 200 mg/kg, olmesartan 6 mg/kg, glimepiride 1 mg/kg
From the text: (§3) Kidney sections were stained with periodic acid-Schiff's reagent and Masson's modified trichrome to assess glomerulosclerosis and collagenous tubulointerstitial matrix, respectively.
In 4 μm kidney sections stained with periodic acid-Schiff's reagent, 150 glomeruli from each animal were examined. The extent of sclerosis in each glomerulus was subjectively graded on a scale of 0 to 4, with the following grades: grade 0 normal, grade 1 sclerotic area <25% (minimal), grade 2 sclerotic area 25-50% (moderate), grade 3 sclerotic area 50-75% (moderate to severe) and grade 4 sclerotic area 75-100% (severe). A glomerulosclerotic index was then calculated using the formula: […]
Where GSI is glomerulosclerotic index, Fi is the % of glomeruli in the rat with a given score (i).

STZ diabetic rats [4] = assay: Homeostatic model assessment (HOMA-Index, β-cell function) in STZ diabetic rats; format: in vivo, rat; conditions: STZ diabetic rats after treatment; mean ± S.E.M., five animals
From the text: The homeostatic model assessment (HOMA) is a method used to quantify insulin resistance and beta-cell function (Homeostasis model assessment: insulin resistance and beta-cell function from fasting plasma glucose and insulin concentrations in man. Diabetologia 28: 412-9.). The approximating equation for insulin resistance, in the early model, used a fasting plasma sample, and was derived by use of the insulin-glucose product, divided by a constant. HOMA-IR=(Glucose×Insulin)/405;HOMA-% B=([…])/(Glucose-63)
Where IR is insulin resistance and % B is the β-cell function where Glucose is given in mg/dl and Insulin is given in μU/mL (both during fasting). Garcinol inhibited insulin resistance assessed by HOMA-Index with significance when compared with the diabetic group.

STZ diabetic rats [5] = assay: Tubulointerstitial matrix index (Masson's trichrome); format: in vivo, rat; conditions: kidney of STZ diabetic rats, 8 weeks; semi-quantified; garcinol 200 mg/kg, olmesartan 6 mg/kg, glimepiride 1 mg/kg
Protocol: as §3
The accumulation of matrix within the tubulointerstitial was assessed on Masson's trichrome stained sections. Blue area on a trichrome-stained section was selected for its color range and the proportional area of tissue with this range of color was then semi-quantified as tubulointerstitial matrix index (TIMI).

STZ diabetic rats [6] = assay: DNA fragmentation assay (TUNEL) for apoptosis in kidney; format: in vivo, rat; conditions: for Apoptosis: kidney of STZ diabetic rats, 8 weeks, garcinol 200 mg/kg, olmesartan 6 mg/kg, glimepiride 1 mg/kg; for DNA fragmentation / apoptosis in kidney (qualitative): kidney of diabetic rats, FIG. 4
Protocol: For detection and localization of apoptosis in kidney, the technique of terminal deoxynucleotidyl transferase-mediated dUTP nick end labeling (TUNEL) (Apo-BrdU-IHC™ In Situ DNA Fragmentation Assay Kit, Biovison, USA) were employed. Briefly, sections were deparaffinized, hydrated, and digested with proteinase K (20 μg/ml), and then added biotinylated dUTP to the 3′ end of DNA fragments by incubating sections in 0.05 mol/l Tris-HCl buffer (pH 7.6) with 0.03 U/μl TdT and 0.04 nmol/μl biotin-11-dUTP at 37° C. for 1 h. The sections were rinsed in PBS. Endogenous peroxidase was blocked with 0.3% H2O2 in distilled H2O. The sections were rinsed with PBS and covers with 2% blocking solution in 0.1 mol/l sodium maleate to reduce background staining. The sections were then incubated with avidin-peroxidase complexes in PBS (1:50) for 30 min and rinsed with PBS (3×5 min). Peroxidase activity was visualized with 3,3′-diaminobenzidine until the brown product was clearly visible. The sections were then counterstained with methyl green. The positive apoptotic cells were the cells with brown nucleus 2.10.

STZ diabetic rats [7] = assay: Fasting and post prandial blood glucose in STZ diabetic rats; format: in vivo, rat; set-up: Reduction of post prandial glucose: concentration or dose not given beside the values; conditions: for Reduction of fasting blood glucose / Reduction of post prandial glucose: 8 weeks treatment; for Reduction of post prandial glucose: compared to diabetic group; for Blood glucose, fasting, before treatment / Blood glucose, post prandial, before treatment: baseline before treatment; for Blood glucose, fasting, before treatment / Blood glucose, post prandial, before treatment / Blood glucose, fasting, after treatment / Blood glucose, post prandial, after treatment: mean ± S.E.M., eight animals; for Blood glucose, fasting, after treatment / Blood glucose, post prandial, after treatment: once daily for 8 weeks, garcinol 200 mg/kg, olmesartan 6 mg/kg/day, glimepiride 1 mg/kg/day
Protocol: as §1, §2
However, the decrease was less than antidiabetic reference glimepiride treatment (˜27%). Moreover, the reduction of post prandial glucose with garcinol treatment (˜36%) was more than olmesartan (˜10%) but was lower than observed with glimepiride treatment (almost 43%) when compared to diabetic group.

[8] = system: glucose transporter 2 (GLUT2); assay: GLUT-2 protein expression in liver of diabetic rats (Western blot); format: in vivo, rat; conditions: 8 weeks treatment, FIG. 3
Protocol: (§4) For determination of glucose transporter 2 (GLUT2) protein expressions in liver and glucose transporter 4 (GLUT4) protein expressions in skeletal muscle; each sample prepared was mixed with 1% sodium dodecyl sulfate and 50 mM dithiothreitol, and the mixture was subjected to electrophoresis with 10% polyacrylamide gel. The separated proteins on the gel were electrotransferred to a polyvinylidene difluoride membrane. After blocking with 5% skim milk solution including 0.05% Poly (Oxyethylene) sorbitan monolaurate (Tween 20) overnight at 4° C., the membrane was reacted with anti-GLUT-2 antibody (Abcam, UK) & anti-GLUT-4 antibody (Abcam, UK) for 2 h. Subsequently, it was incubated with horseradish peroxidase conjugated IgG (diluted 1:2000) [Jackson immunoresearch laboratories, USA] for 2 h at room temperature (Western Blot). Reduced qualitative expression of GLUT2 and GLUT 4 in liver and muscle respectively of diabetic rats were improved with the garcinol treatment (FIG. 3), which were better than observed with olmesartan.

[9] = system: glucose transporter 4 (GLUT4); assay: GLUT-4 protein expression in soleus muscle of diabetic rats (Western blot); format: in vivo, rat; conditions: 8 weeks treatment, FIG. 3
Protocol: as §4

## C=C(C)[C@@H](CC=C(C)C)C[C@@]12C[C@@H](CC=C(C)C)C(C)(C)[C@@](CC=C(C)C)(C(=O)C(C(=O)c3ccc(O)c(O)c3)=C1O)C2=O [Garcinol]
STZ diabetic rats [1]
  Adiponectin: 3.297 ± 0.56 µg/mL
  Beta-2 microglobulin (GFR): 0.3488 ± 0.12 µg/mL
  Erythropoietin: 0.3508 ± 0.029 mlU/ml
  Nitric Oxide: 0.32 ± 0.026 nmol/µL
  Plasma Insulin: 12.13 ± 1.17 ng/mL
  Serum Creatinine (GFR): 1.804 ± 0.36 mg/dL
  Serum CystatinC (GFR): 0.4098 ± 0.028 ng/mL
  TGF-β: 3.908 ± 0.82 pg/mL
  TNF-α: 0.04059 ± 0.0092 pg/mL
  Total Proteins: 2.05 ± 0.14 mg/mL
  VEGF: 57.21 ± 3.89 pg/mL
Rat nephrin
  Nephrin: 50 % FA
STZ diabetic rats [2]; after Garcinol administration
  Diastolic blood pressure, after Garcinol administration: 112
  Mean blood pressure, after Garcinol administration: 125
  Systolic blood pressure, after Garcinol administration: 153
STZ diabetic rats [2]; before treatment
  Diastolic blood pressure, before treatment: 127
  Mean blood pressure, before treatment: 139
  Systolic blood pressure, before treatment: 165
STZ diabetic rats [3]
  GSI (glomerulosclerotic index): 1.4
STZ diabetic rats [4]
  % BETA-CELL FUNCTION: 31.4 ± 3.17
  HOMA-INDEX: 1.55 ± 0.0827
STZ diabetic rats [5]
  TIMI (tubulointerstitial matrix index): 2
STZ diabetic rats [6]
  Apoptosis: 20 % FA
STZ diabetic rats [7]
  Reduction of fasting blood glucose: ~18%
  Reduction of post prandial glucose: ~36%
  Blood glucose, fasting, before treatment: 166.2 ± 4.9 mg/dL
  Blood glucose, post prandial, before treatment: 287 ± 24.7 mg/dL
  Blood glucose, fasting, after treatment: 136.2 ± 5.86 mg/dL
  Blood glucose, post prandial, after treatment: 190 ± 5.27 mg/dL

## CCC1=C(C)CN(C(=O)NCCc2ccc(S(=O)(=O)NC(=O)N[C@H]3CC[C@H](C)CC3)cc2)C1=O [Glimepiride, glimepiride]
STZ diabetic rats [1]
  Adiponectin: 2.277 ± 0.86 µg/mL
  Beta-2 microglobulin (GFR): 1.42 ± 0.21 µg/mL
  Erythropoietin: 0.5141 ± 0.13 mlU/ml
  Nitric Oxide: 0.33 ± 0.064 nmol/µL
  Plasma Insulin: 14.38 ± 1.29 ng/mL
  Serum Creatinine (GFR): 1.873 ± 0.56 mg/dL
  Serum CystatinC (GFR): 0.2933 ± 0.033 ng/mL
  TGF-β: 8.316 ± 2.06 pg/mL
  TNF-α: 0.08563 ± 0.0167 pg/mL
  Total Proteins: 1.956 ± 0.09 mg/mL
  VEGF: 61.29 ± 2.54 pg/mL
Rat nephrin
  Nephrin: 20 % FA
[8]
  Qualitative expression of GLUT2 in liver: did not show any improvement
[9]
  Qualitative expression of GLUT 4 in muscle: did not show any improvement
STZ diabetic rats [3]
  GSI (glomerulosclerotic index): 2.8
STZ diabetic rats [4]
  % BETA-CELL FUNCTION: 35.6 ± 5.24
  HOMA-INDEX: 1.53 ± 0.144
STZ diabetic rats [5]
  TIMI (tubulointerstitial matrix index): 2
STZ diabetic rats [6]
  Apoptosis: 90 % FA
  DNA fragmentation / apoptosis in kidney (qualitative): no change in the decrease in apoptosis
STZ diabetic rats [7]
  Reduction of fasting blood glucose: ~27%
  Reduction of post prandial glucose: ~43%
  Blood glucose, fasting, before treatment: 165.2 ± 1.5 mg/dL
  Blood glucose, post prandial, before treatment: 308 ± 4.98 mg/dL
  Blood glucose, fasting, after treatment: 119.2 ± 5.4 mg/dL
  Blood glucose, post prandial, after treatment: 174 ± 3.75 mg/dL

## CCCc1nc(C(C)(C)O)c(C(=O)OCc2oc(=O)oc2C)n1Cc1ccc(-c2ccccc2-c2nnn[nH]2)cc1 [Olmesartan, olmesartan medoxomil]
STZ diabetic rats [1]
  Adiponectin: 0.93 ± 0.18 µg/mL
  Beta-2 microglobulin (GFR): 0.6529 ± 0.21 µg/mL
  Erythropoietin: 0.2657 ± 0.047 mlU/ml
  Nitric Oxide: 0.34 ± 0.097 nmol/µL
  Plasma Insulin: 12.74 ± 1.48 ng/mL
  Serum Creatinine (GFR): 2.063 ± 0.41 mg/dL
  Serum CystatinC (GFR): 0.4617 ± 0.048 ng/mL
  TGF-β: 5.963 ± 0.896 pg/mL
  TNF-α: 0.05665 ± 0.013 pg/mL
  Total Proteins: 2.123 ± 0.11 mg/mL
  VEGF: 66.3 ± 1.14 pg/mL
Rat nephrin
  Nephrin: 62.5 % FA
STZ diabetic rats [3]
  GSI (glomerulosclerotic index): 1.4
STZ diabetic rats [3]; kidney of diabetic rats, FIG. 4
  Histopathological changes in kidney (qualitative): improvement in tubular injury was visible
STZ diabetic rats [4]
  % BETA-CELL FUNCTION: 21.7 ± 1.98
  HOMA-INDEX: 1.7 ± 0.095
STZ diabetic rats [5]
  TIMI (tubulointerstitial matrix index): 1
STZ diabetic rats [6]
  Apoptosis: 40 % FA
  DNA fragmentation / apoptosis in kidney (qualitative): decrease in the DNA fragmentation was clearly observed qualitatively
STZ diabetic rats [7]
  Reduction of fasting blood glucose: 14%
  Reduction of post prandial glucose: ~10%
  Blood glucose, fasting, before treatment: 162.7 ± 4.34 mg/dL
  Blood glucose, post prandial, before treatment: 288 ± 6.82 mg/dL
  Blood glucose, fasting, after treatment: 139.7 ± 5.05 mg/dL
  Blood glucose, post prandial, after treatment: 259 ± 7.16 mg/dL
